Columns and labels:
green foxtail = assay: Test F preemergence test; format: in vivo, Setaria viridis; details: scale 0 to 100
Text: (§1) Seeds of plant species selected from bermudagrass (Cynodon dactylon), Surinam grass (Brachiaria decumbens), large crabgrass (Digitaria sanguinalis), green foxtail (Setaria viridis), goosegrass (Eleusine indica), johnsongrass (Sorghum halepense), kochia (Kochia scoparia), pitted morningglory (Ipomoea lacunosa), purple nutsedge (Cyperus rotundus), common ragweed (Ambrosia elation), mustard (Brassica nigra), guineagrass (Panicum maximum), […] (Paspalum dilatatum), barnyardgrass (Echinochloa crus-galli), southern sandbur (Cenchrus echinatus), common sowthistle (Sonchus oleraceous), prickly […] spinosa), Italian ryegrass (Lolium multiflorum), common purslane (Portulaca oleracea), broadleaf signalgrass (Brachiaria platyphylla), common groundsel (Senecio vulgaris), common chickweed (Stellaria media), Virginia dayflower (Commelina virginica), annual bluegrass (Poa annua), naked crabgrass (Digitaria nuda), […] cochinchinensis), quackgrass (Elytrigia repens), Canada horseweed (Conyza canadensis), field bindweed (Convolvulus arvensis), […] (Bidens bipinnata), common mallow (Malva sylvestris), Russian thistle (Salsola kali), and sugarcane (Saccharum officinarum) were planted and treated preemergence with test chemicals formulated in a non-phytotoxic solvent mixture which included a surfactant. At a different time, sugarcane was treated with postemergence applications of some of the test chemicals formulated in the same manner. Plants were approximately 3- to 4-leaf stage for the postemergence treatments. Treated plants and controls were maintained in a greenhouse for 14 to 21 days, after which time all species were compared to controls and visually evaluated. […] A dash (-) response means no test result.

purple nutsedge = assay: Test F preemergence test; format: in vivo, Cyperus rotundus; details: scale 0 to 100
Text: as §1

bermudagrass = assay: Test F preemergence test; format: in vivo, Cynodon dactylon; details: scale 0 to 100
Text: as §1

yellow nutsedge = assay: Test C pre-/postemergence test; format: in vivo, Cyperus esculentus
In short: (§2)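 Seeds were planted and treated preemergence with test chemical in a non-phytotoxic solvent mixture containing surfactant. Postemergence applications of the same formulation went onto plants 2 to 18 cm tall (1- to 4-leaf stage). A dash marks no test result.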

pitted morningglory = assay: Test F preemergence test; format: in vivo, Ipomoea lacunosa; details: scale 0 to 100
Text: as §1

goosegrass = assay: Test F preemergence test; format: in vivo, Eleusine indica; details: scale 0 to 100
Text: as §1

kochia = assay: Test C pre-/postemergence test; format: in vivo, Kochia scoparia
In short: as §2

common ragweed [1] = assay: Test C pre-/postemergence test; format: in vivo, Ambrosia elation; details: for Plant response rating, Ragweed: scale 0 to 100, 0 no effect, 100 complete control
In short: as §2

itchgrass = assay: Test F preemergence test; format: in vivo, Rottboellia cochinchinensis; details: scale 0 to 100
Text: as §1

prickly sida = assay: Test F preemergence test; format: in vivo, Sida spinosa; details: scale 0 to 100
Text: as §1

broadleaf signalgrass = assay: Test F preemergence test; format: in vivo, Brachiaria platyphylla; details: scale 0 to 100
Text: as §1

naked crabgrass = assay: Test F preemergence test; format: in vivo, Digitaria nuda; details: scale 0 to 100
Text: as §1

crabgrass = assay: Test A pre-/postemergence greenhouse test; format: in vivo, Digitaria sanguinalis; details: for Crabgrass, Large plant response rating: 0 to 100 scale; for Plant response rating, Crabgrass, Large: 0 to 100 scale where 0 is no effect and 100 is complete control
In short: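 Greenhouse herbicide screen, pre- and postemergence in parallel. Soil: loam plus sand. Formulation: non-phytotoxic solvent mix with surfactant. Postemergence stage: one to two leaves, 2–10 cm height. Evaluation: visual injury, compared with untreated controls, about 10 days after treatment.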

common ragweed [2] = assay: Test F preemergence test; format: in vivo, Ambrosia elation; details: scale 0 to 100
Text: as §1

[3] = 31 g ai/ha, Preemergence, scale 0 to 100
[4] = 62 g ai/ha, preemergence, scale 0 (no effect) to 100 (complete control)
[5] = Postemergence, 62 g ai/ha, scale 0 to 100, 0 no effect, 100 complete control
[6] = Postemergence, 125 g ai/ha, scale 0 to 100, 0 no effect, 100 complete control
[7] = Postemergence, 250 g ai/ha, scale 0 to 100, 0 no effect, 100 complete control
[8] = preemergence, 125 g ai/ha, scale 0 (no effect) to 100 (complete control)
[9] = Postemergence, 500 g ai/ha, 0 is no effect, 100 is complete control
[10] = Preemergence, 125 g ai/ha, 0 no effect, 100 complete control
[11] = 62 g ai/ha, Preemergence, scale 0 to 100
[12] = 125 g ai/ha, preemergence, scale 0 (no effect) to 100 (complete control)
[13] = Preemergence, 31 g ai/ha, scale 0 to 100 (0 no effect, 100 complete control)
[14] = preemergence, 250 g ai/ha, scale 0 (no effect) to 100 (complete control)

Compound: Cc1cc[n+]([O-])c(S(=O)(=O)Cc2c(C(F)(F)F)nn(C)c2OC(F)F)c1 [Compound 2]
- Plant response rating, Foxtail, Green (green foxtail; 8 g ai/ha, preemergence): 0
- Foxtail, Green plant response rating (green foxtail; 62 g ai/ha, Preemergence): 80
- Plant response rating, Foxtail, Green (green foxtail; Preemergence, 16 g ai/ha): 20
- Plant response rating, Foxtail, Green (green foxtail; Preemergence, 31 g ai/ha): 65
- Plant response rating, Purple Nutsedge (purple nutsedge; 8 g ai/ha, preemergence): 0
- Purple Nutsedge plant response rating (purple nutsedge; 62 g ai/ha, Preemergence): 100
- Plant response rating, Purple Nutsedge (purple nutsedge; Preemergence, 16 g ai/ha): 15
- Plant response rating, Purple Nutsedge (purple nutsedge; Preemergence, 31 g ai/ha): 70
- Plant response rating, Bermudagrass (bermudagrass; 8 g ai/ha, preemergence): 0
- Bermudagrass plant response rating (bermudagrass; 62 g ai/ha, Preemergence): 90
- Plant response rating, Bermudagrass (bermudagrass; Preemergence, 16 g ai/ha): 25
- Plant response rating, Bermudagrass (bermudagrass; Preemergence, 31 g ai/ha): 90
- Nutsedge, Yellow plant response rating (yellow nutsedge; [3]): 0
- Nutsedge, Yellow plant response rating (yellow nutsedge; [4]): 95
- Plant response rating (0 to 100), Nutsedge, Yellow (yellow nutsedge; Postemergence, 31 g ai/ha): 0
- Plant response rating, Nutsedge, Yellow (yellow nutsedge; [5]): 0
- Plant response rating, Nutsedge, Yellow (yellow nutsedge; [6]): 0
- Plant response rating, Nutsedge, Yellow (yellow nutsedge; [7]): 0
- Plant response rating (0 to 100), Nutsedge, Yellow (yellow nutsedge; Preemergence, 250 g ai/ha): 100
- Nutsedge, Yellow plant response rating (yellow nutsedge; [8]): 95
- Plant response rating, Morningglory (pitted morningglory; 8 g ai/ha, preemergence): 0
- Morningglory plant response rating (pitted morningglory; 62 g ai/ha, Preemergence): 60
- Plant response rating, Morningglory (pitted morningglory; Preemergence, 16 g ai/ha): 0
- Plant response rating, Morningglory (pitted morningglory; Preemergence, 31 g ai/ha): 15
- Plant response rating, Goosegrass (goosegrass; 8 g ai/ha, preemergence): 35
- Goosegrass plant response rating (goosegrass; 62 g ai/ha, Preemergence): 98
- Plant response rating, Goosegrass (goosegrass; Preemergence, 16 g ai/ha): 70
- Plant response rating, Goosegrass (goosegrass; Preemergence, 31 g ai/ha): 90
- Kochia plant response rating (kochia; [3]): 100
- Kochia plant response rating (kochia; [4]): 100
- Plant response rating (0 to 100), Kochia (kochia; Postemergence, 31 g ai/ha): 0
- Plant response rating, Kochia (kochia; [5]): 0
- Plant response rating, Kochia (kochia; [6]): 5
- Plant response rating, Kochia (kochia; [7]): 5
- Plant response rating (0 to 100), Kochia (kochia; Preemergence, 250 g ai/ha): 100
- Kochia plant response rating (kochia; [8]): 100
- Ragweed plant response rating (common ragweed [1]; [3]): 20
- Ragweed plant response rating (common ragweed [1]; [4]): 98
- Plant response rating (0 to 100), Ragweed (common ragweed [1]; Postemergence, 31 g ai/ha): 0
- Plant response rating (0 to 100), Ragweed (common ragweed [1]; Postemergence, 62 g ai/ha): 0
- Plant response rating, Ragweed (common ragweed [1]; Postemergence, 125 g ai/ha): 5
- Plant response rating, Ragweed (common ragweed [1]; Postemergence, 250 g ai/ha): 10
- Plant response rating (0 to 100), Ragweed (common ragweed [1]; Preemergence, 250 g ai/ha): 100
- Ragweed plant response rating (common ragweed [1]; [8]): 100
- Plant response rating, Itchgrass (itchgrass; 8 g ai/ha, preemergence): 0
- Itchgrass plant response rating (itchgrass; 62 g ai/ha, Preemergence): 70
- Plant response rating, Itchgrass (itchgrass; Preemergence, 16 g ai/ha): 20
- Plant response rating, Itchgrass (itchgrass; Preemergence, 31 g ai/ha): 60
- Plant response rating, Prickly Sida (prickly sida; 8 g ai/ha, preemergence): 0
- Prickly Sida plant response rating (prickly sida; 62 g ai/ha, Preemergence): 80
- Plant response rating, Prickly Sida (prickly sida; Preemergence, 16 g ai/ha): 0
- Plant response rating, Prickly Sida (prickly sida; Preemergence, 31 g ai/ha): 40
- Plant response rating, Signalgrass (broadleaf signalgrass; 8 g ai/ha, preemergence): 0
- Plant response rating, Signalgrass (broadleaf signalgrass; 16 g ai/ha, preemergence): 0
- Signalgrass plant response rating (broadleaf signalgrass; 62 g ai/ha, Preemergence): 50
- Plant response rating, Signalgrass (broadleaf signalgrass; Preemergence, 31 g ai/ha): 0
- Plant response rating, Crabgrass, Naked (naked crabgrass; 8 g ai/ha, preemergence): 0
- Crabgrass, Naked plant response rating (naked crabgrass; 62 g ai/ha, Preemergence): 80
- Plant response rating, Crabgrass, Naked (naked crabgrass; Preemergence, 16 g ai/ha): 35
- Plant response rating, Crabgrass, Naked (naked crabgrass; Preemergence, 31 g ai/ha): 65
- Crabgrass, Large plant response rating (crabgrass; Postemergence, 125 g ai/ha, 0 is no effect, 100 is complete control): 70
- Crabgrass, Large plant response rating (crabgrass; [9]): 90
- Crabgrass, Large plant response rating (crabgrass; [10]): 90
- Plant response rating, Crabgrass, Large (crabgrass; Preemergence, 500 g ai/ha): 100

Compound: CC(Oc1c(CS(=O)(=O)c2cccc[n+]2[O-])c(C(F)(F)F)nn1C)C(F)(F)F (stereo not shown) [Compound 82]
- Plant response rating, Foxtail, Green (green foxtail; 16 g ai/ha, preemergence): 30
- Foxtail, Green plant response rating (green foxtail; 125 g ai/ha, preemergence): 95
- Plant response rating, Foxtail, Green (green foxtail; Preemergence, 62 g ai/ha): 95
- Plant response rating, Foxtail, Green (green foxtail; Preemergence, 31 g ai/ha): 95
- Plant response rating, Purple Nutsedge (purple nutsedge; 16 g ai/ha, preemergence): 0
- Purple Nutsedge plant response rating (purple nutsedge; 125 g ai/ha, preemergence): 50
- Plant response rating, Purple Nutsedge (purple nutsedge; Preemergence, 62 g ai/ha): 30
- Plant response rating, Bermudagrass (bermudagrass; 16 g ai/ha, preemergence): 0
- Bermudagrass plant response rating (bermudagrass; 125 g ai/ha, preemergence): 100
- Plant response rating, Bermudagrass (bermudagrass; Preemergence, 62 g ai/ha): 90
- Plant response rating, Bermudagrass (bermudagrass; Preemergence, 31 g ai/ha): 80
- Plant response rating, Ragweed (common ragweed [2]; 16 g ai/ha, preemergence): 0
- Ragweed plant response rating (common ragweed [2]; 125 g ai/ha, preemergence): 0
- Plant response rating, Ragweed (common ragweed [2]; Preemergence, 31 g ai/ha): 0
- Nutsedge, Yellow plant response rating (yellow nutsedge; [11]): 60
- Nutsedge, Yellow plant response rating (yellow nutsedge; [12]): 75
- Plant response rating (0 to 100), Nutsedge, Yellow (yellow nutsedge; Postemergence, 31 g ai/ha): 0
- Plant response rating (0 to 100), Nutsedge, Yellow (yellow nutsedge; Postemergence, 62 g ai/ha): 0
- Plant response rating, Nutsedge, Yellow (yellow nutsedge; [6]): 0
- Plant response rating, Nutsedge, Yellow (yellow nutsedge; [7]): 0
- Plant response rating, Nutsedge, Yellow (yellow nutsedge; [13]): 40
- Nutsedge, Yellow plant response rating (yellow nutsedge; [14]): 100
- Plant response rating, Goosegrass (goosegrass; 16 g ai/ha, preemergence): 15
- Goosegrass plant response rating (goosegrass; 125 g ai/ha, preemergence): 98
- Plant response rating, Goosegrass (goosegrass; Preemergence, 62 g ai/ha): 98
- Plant response rating, Goosegrass (goosegrass; Preemergence, 31 g ai/ha): 75
- Kochia plant response rating (kochia; [11]): 100
- Kochia plant response rating (kochia; [12]): 100
- Plant response rating (0 to 100), Kochia (kochia; Postemergence, 31 g ai/ha): 0
- Plant response rating (0 to 100), Kochia (kochia; Postemergence, 62 g ai/ha): 0
- Plant response rating, Kochia (kochia; [6]): 0
- Plant response rating, Kochia (kochia; [7]): 0
- Plant response rating, Kochia (kochia; [13]): 100
- Kochia plant response rating (kochia; [14]): 100
- Ragweed plant response rating (common ragweed [1]; [11]): 0
- Ragweed plant response rating (common ragweed [1]; [12]): 100
- Plant response rating (0 to 100), Ragweed (common ragweed [1]; Postemergence, 31 g ai/ha): 0
- Plant response rating (0 to 100), Ragweed (common ragweed [1]; Postemergence, 62 g ai/ha): 30
- Plant response rating, Ragweed (common ragweed [1]; Postemergence, 125 g ai/ha): 35
- Plant response rating, Ragweed (common ragweed [1]; Postemergence, 250 g ai/ha): 50
- Ragweed plant response rating (common ragweed [1]; [14]): 100
- Itchgrass plant response rating (itchgrass; 125 g ai/ha, preemergence): 70
- Plant response rating, Itchgrass (itchgrass; Preemergence, 62 g ai/ha): 60
- Plant response rating, Itchgrass (itchgrass; Preemergence, 31 g ai/ha): 0
- Plant response rating, Prickly Sida (prickly sida; 16 g ai/ha, preemergence): 0
- Prickly Sida plant response rating (prickly sida; 125 g ai/ha, preemergence): 75
- Plant response rating, Prickly Sida (prickly sida; Preemergence, 62 g ai/ha): 15
- Plant response rating, Prickly Sida (prickly sida; Preemergence, 31 g ai/ha): 0
- Plant response rating, Signalgrass (broadleaf signalgrass; 16 g ai/ha, preemergence): 50
- Signalgrass plant response rating (broadleaf signalgrass; 125 g ai/ha, preemergence): 100
- Plant response rating, Signalgrass (broadleaf signalgrass; Preemergence, 62 g ai/ha): 100
- Plant response rating, Signalgrass (broadleaf signalgrass; Preemergence, 31 g ai/ha): 50
- Plant response rating, Crabgrass, Naked (naked crabgrass; 16 g ai/ha, preemergence): 35
- Crabgrass, Naked plant response rating (naked crabgrass; 125 g ai/ha, preemergence): 100
- Plant response rating, Crabgrass, Naked (naked crabgrass; Preemergence, 62 g ai/ha): 100
- Plant response rating, Crabgrass, Naked (naked crabgrass; Preemergence, 31 g ai/ha): 98
- Plant response rating, Crabgrass, Large (crabgrass; Postemergence, 125 g ai/ha): 80
- Crabgrass, Large plant response rating (crabgrass; [9]): 90
- Crabgrass, Large plant response rating (crabgrass; [10]): 80
- Plant response rating, Crabgrass, Large (crabgrass; Preemergence, 500 g ai/ha): 100
